From ChEMBL document CHEMBL4627373, “Antitubercular Ilamycins from Marine-Derived Streptomyces atratus SCSIO ZH16 ΔilaR” (J Nat Prod, 2020)
*1 amine or outer side, *2 acyl side, *3 side chain or, on linkers, in order; H or OH if unused. Where a SMILES comes first, the peptide text is derived from it. [ ]: non-standard residue; d: D form. Trp(1-(1,1-Me2-allyl)) = C=CC(C)(C)n1cc(C[C@H](N)C(=O)O)c2ccccc21; X6 = C=C[C@](C)(CO)n1cc(C[C@H](N[*:1])C(=O)[*:2])c2ccccc21; Tyr(3-NO2) = N[C@@H](Cc1ccc(O)c([N+](=O)[O-])c1)C(=O)O; X7 = CN([C@@H](C[C@@](C)(O)C(=O)O)C(=O)[*:2])[*:1]; X2 = CN([C@@H](C[C@H](CO)C(=O)O)C(=O)[*:2])[*:1]; X4 = C[C@H](C[C@@H](C(=O)[*:2])N(C)[*:1])C(=O)O; X1 = CN([C@@H](C[C@@](C)(O)CO)C(=O)[*:2])[*:1]; X5 = O=CNc1cc(C[C@H](N[*:1])C(=O)[*:2])ccc1O; X3 = CN([C@@H](CC(CO)CO)C(=O)[*:2])[*:1]; Gly(E-crotyl) = C/C=C/C[C@H](N)C(=O)O; NMeMet(O) = CN[C@@H](CCS(C)=O)C(=O)O; NMeL = CN[C@@H](CC(C)C)C(=O)O

How the values were obtained:
[1] = tested on: Mycobacterium tuberculosis; experiment: Antitubercular activity against Mycobacterium tuberculosis H37Rv assessed as reduction in microbial growth by broth dilution method; type: functional
RKO = experiment: Cytotoxicity against human RKO cells assessed as reduction in cell viability after 24 hrs by CCK8 assay; type: functional, cell-based
HeLa = experiment: Cytotoxicity against human HeLa cells assessed as reduction in cell viability after 24 hrs by CCK8 assay; type: functional, cell-based
L02 = experiment: Cytotoxicity against human LO2 cells assessed as reduction in cell viability after 24 hrs by CCK8 assay; type: cell-based; details: L02, 24 h
MCF7 = experiment: Cytotoxicity against human MCF7 cells assessed as reduction in cell viability after 24 hrs by CCK8 assay; type: functional, cell-based; details: MCF7, 24 h
A549 = experiment: Cytotoxicity against human A549 cells assessed as reduction in cell viability after 24 hrs by CCK8 assay; type: functional, cell-based; details: A549, 24 h
HepG2 = experiment: Cytotoxicity against human HepG2 cells assessed as reduction in cell viability after 24 hrs by CCK8 assay; type: functional, cell-based; details: HepG2, 24 h
[2] = Cytotoxicity against human HUVEC12 cells assessed as reduction in cell viability after 24 hrs by CCK8 assay; type: cell-based

Structure (SMILES) | MIC [1] [µM] | IC50 (RKO) [µM] | IC50 (HeLa) [µM] | IC50 (L02) [µM] | IC50 (MCF7) [µM] | IC50 (A549) [µM] | IC50 (HepG2) [µM] | IC50 [2] [µM]
CO[C@H]1/C=C/O[C@@]2(C)Oc3c(C)c(O)c4c(O)c(c(/C=N/N5CCN(C)CC5)c(O)c4c3C2=O)NC(=O)/C(C)=C\C=C\[C@H](C)[C@H](O)[C@@H](C)[C@@H](O)[C@@H](C)[C@H](OC(C)=O)[C@@H]1C [RIFAMPIN] | 0.3 |  |  |  |  |  |  | 
C=CC(C)(C)n1cc(C[C@@H]2NC(=O)[C@H](C/C=C/C)NC(=O)[C@H](CC(C)C)NC(=O)[C@H](C[C@@H](C)C(=O)O)N(C)C(=O)[C@H](C)NC(=O)[C@H](Cc3ccc(O)cc3)NC(=O)[C@H](CC(C)C)N(C)C2=O)c2ccccc21 (cyclo(A[X4]L[Gly(E-crotyl)][Trp(1-(1,1-Me2-allyl))][NMeL]Y)) | 10 | > 50 | > 50 | > 50 | > 50 | > 50 | > 50 | > 50
C=CC(C)(C)n1cc(C[C@@H]2NC(=O)[C@H](C/C=C/C)NC(=O)[C@H](CC(C)C)NC(=O)[C@H](C[C@@H](C)C(=O)O)N(C)C(=O)[C@H](C)NC(=O)[C@H](Cc3ccc(O)c(NC=O)c3)NC(=O)[C@H](CC(C)C)N(C)C2=O)c2ccccc21 (cyclo(A[X4]L[Gly(E-crotyl)][Trp(1-(1,1-Me2-allyl))][NMeL][X5])) | 9.6 | > 50 | > 50 | > 50 | > 50 | > 50 | > 50 | > 50
C=C[C@](C)(CO)n1cc(C[C@@H]2NC(=O)[C@H](C/C=C/C)NC(=O)[C@H](CC(C)C)N3C(=O)[C@H](C[C@H](C)[C@H]3O)N(C)C(=O)[C@H](C)NC(=O)[C@H](Cc3ccc(O)c([N+](=O)[O-])c3)NC(=O)[C@H](CC(C)C)N(C)C2=O)c2ccccc21 | 0.0096 | 19 | 28 | 31 | 33 | 34 | > 50 | 47
C=CC(C)(C)n1cc(C[C@@H]2NC(=O)[C@H](C/C=C/C)NC(=O)[C@H](CC(C)C)N3C(=O)[C@H](C[C@H](C)[C@H]3O)N(C)C(=O)[C@H](C)NC(=O)[C@H](Cc3ccc(O)c([N+](=O)[O-])c3)NC(=O)[C@H](CC(C)C)N(C)C2=O)c2ccccc21 | 0.0098 | 7.5 | 3.1 | 10 | 3.1 | 4.3 | 3.7 | 15
C=CC(C)(C)n1cc(C[C@@H]2NC(=O)[C@H](C/C=C/C)NC(=O)[C@H](CC(C)C)NC(=O)[C@H](C[C@@](C)(O)CO)N(C)C(=O)[C@H](C)NC(=O)[C@H](Cc3ccc(O)c([N+](=O)[O-])c3)NC(=O)[C@H](CC(C)C)N(C)C2=O)c2ccccc21 (cyclo(A[X1]L[Gly(E-crotyl)][Trp(1-(1,1-Me2-allyl))][NMeL][Tyr(3-NO2)])) | 2.3 | > 50 | 49 | > 50 | > 50 | > 50 | > 50 | > 50
C=CC(C)(C)n1cc(C[C@@H]2NC(=O)[C@H](C/C=C/C)NC(=O)[C@H](CC(C)C)N3C(=O)[C@H](C[C@@H](CO)[C@H]3O)N(C)C(=O)[C@H](C)NC(=O)[C@H](Cc3ccc(O)c([N+](=O)[O-])c3)NC(=O)[C@H](CC(C)C)N(C)C2=O)c2ccccc21 | 1.4 | 7.3 | 7.2 | 16 | 5.6 | 19 | 22 | 12
C=CC(C)(C)n1cc(C[C@@H]2NC(=O)[C@H](C/C=C/C)NC(=O)[C@H](CC(C)C)NC(=O)[C@H](CC(CO)CO)N(C)C(=O)[C@H](C)NC(=O)[C@H](Cc3ccc(O)c([N+](=O)[O-])c3)NC(=O)[C@H](CC(C)C)N(C)C2=O)c2ccccc21 (cyclo(A[X3]L[Gly(E-crotyl)][Trp(1-(1,1-Me2-allyl))][NMeL][Tyr(3-NO2)])) | 1.2 | 41 | 17 | > 50 | 38 | > 50 | > 50 | > 50
C=CC(C)(C)n1cc(C[C@@H]2NC(=O)[C@H](C/C=C/C)NC(=O)[C@H](CC(C)C)NC(=O)[C@H](C[C@H](CO)C(=O)O)N(C)C(=O)[C@H](C)NC(=O)[C@H](Cc3ccc(O)c([N+](=O)[O-])c3)NC(=O)[C@H](CC(C)C)N(C)C2=O)c2ccccc21 (cyclo(A[X2]L[Gly(E-crotyl)][Trp(1-(1,1-Me2-allyl))][NMeL][Tyr(3-NO2)])) | 9.5 | > 50 | > 50 | > 50 | > 50 | > 50 | > 50 | > 50
COc1cccc2c1C(=O)c1c(O)c3c(c(O)c1C2=O)C[C@@](O)(C(=O)CO)C[C@@H]3O[C@H]1C[C@H](N)[C@H](O)[C@H](C)O1 [DOXORUBICIN] |  | 0.3 | 0.5 |  | 0.4 | 0.7 | 0.8 | 4
C=CC(C)(C)n1cc(C[C@@H]2NC(=O)[C@H](C/C=C/C)NC(=O)[C@H](CC(C)C)N3C(=O)[C@H](C[C@H](C)[C@H]3OC)N(C)C(=O)[C@H](C)NC(=O)[C@H](Cc3cccc([N+](=O)[O-])c3)NC(=O)[C@H](CC(C)C)N(C)C2=O)c2ccccc21 | 1.2 |  |  |  |  |  |  | 
C=C[C@](C)(CO)n1cc(C[C@@H]2NC(=O)[C@H](C/C=C/C)NC(=O)[C@H](CC(C)C)NC(=O)[C@H](C[C@@H](C)C(=O)O)N(C)C(=O)[C@H](C)NC(=O)[C@H](Cc3ccc(O)c([N+](=O)[O-])c3)NC(=O)[C@H](CC(C)C)N(C)C2=O)c2ccccc21 (cyclo(A[X4]L[Gly(E-crotyl)][X6][NMeL][Tyr(3-NO2)])) | 9.5 | > 50 | 45 | 49 | > 50 | 30 | > 50 | 48
C=C[C@](C)(CO)n1cc(C[C@@H]2NC(=O)[C@H](C/C=C/C)NC(=O)[C@H](CC(C)C)N3C(=O)[C@H](C[C@@](C)(O)[C@H]3O)N(C)C(=O)[C@H](C)NC(=O)[C@H](Cc3ccc(O)c([N+](=O)[O-])c3)NC(=O)[C@H](CC(C)C)N(C)C2=O)c2ccccc21 | 1.4 | 22 | 14 | 22 | 27 | > 50 | > 50 | > 50
C=CC(C)(C)n1cc(C[C@@H]2NC(=O)[C@H](C/C=C/C)NC(=O)[C@H](CC(C)C)NC(=O)[C@H](CC[S+](C)[O-])N(C)C(=O)[C@H](C)NC(=O)[C@H](Cc3ccc(O)c([N+](=O)[O-])c3)NC(=O)[C@H](CC(C)C)N(C)C2=O)c2ccccc21 (some centres not stated) (cyclo(A[NMeMet(O)]L[Gly(E-crotyl)][Trp(1-(1,1-Me2-allyl))][NMeL][Tyr(3-NO2)])) | 1.4 | 37 | 14 | > 50 | 22 | 25 | 29 | 28
C=C[C@](C)(CO)n1cc(C[C@@H]2NC(=O)[C@H](C/C=C/C)NC(=O)[C@H](CC(C)C)NC(=O)[C@H](C[C@@](C)(O)C(=O)O)N(C)C(=O)[C@H](C)NC(=O)[C@H](Cc3ccc(O)c([N+](=O)[O-])c3)NC(=O)[C@H](CC(C)C)N(C)C2=O)c2ccccc21 (cyclo(A[X7]L[Gly(E-crotyl)][X6][NMeL][Tyr(3-NO2)])) | 0.24 | > 50 | > 50 | > 50 | > 50 | > 50 | > 50 | > 50
C=CC(C)(C)n1cc(C[C@@H]2NC(=O)[C@H](C/C=C/C)NC(=O)[C@H](CC(C)C)NC(=O)[C@H](C[C@@H](C)C(=O)O)N(C)C(=O)[C@H](C)NC(=O)[C@H](Cc3ccc(O)c([N+](=O)[O-])c3)NC(=O)[C@H](CC(C)C)N(C)C2=O)c2ccccc21 (cyclo(A[X4]L[Gly(E-crotyl)][Trp(1-(1,1-Me2-allyl))][NMeL][Tyr(3-NO2)])) | 1.2 | > 50 | > 50 | > 50 | > 50 | > 50 | > 50 | > 50
